According to patent US9549932B2, “2-(morpholin-4-yl)-1,7-naphthyridines” (BAYER PHARMA AKTIENGESELLSCHAFT, priority 2014, dated 2017):
Counter-ions that a name gives are not always drawn. Like-named read-outs stand apart in the source and are kept apart here.

Target: full-length human ATR protein (Homo sapiens (Human), UniProt Q13535)
Experiment: Binding assay ATR (TR-FRET tracer displacement)
Conditions: TR-FRET
Method in brief: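 Full-length human GST-ATR co-purified with ATRIP, pre-complexed 30 min at 22 °C with anti-GST-Tb antibody, then pre-bound with compound 10 min. Tracer A or B added (2 µl of 100 nM solution), 30 min at 22 °C.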

[1] = tracer A, read-out: ATR binding (tracer A) IC50
[2] = tracer B, read-out: ATR binding (tracer B) IC50

full-length human ATR protein, sequence (Q13535 other isoform, or with tags, fused parts or gaps): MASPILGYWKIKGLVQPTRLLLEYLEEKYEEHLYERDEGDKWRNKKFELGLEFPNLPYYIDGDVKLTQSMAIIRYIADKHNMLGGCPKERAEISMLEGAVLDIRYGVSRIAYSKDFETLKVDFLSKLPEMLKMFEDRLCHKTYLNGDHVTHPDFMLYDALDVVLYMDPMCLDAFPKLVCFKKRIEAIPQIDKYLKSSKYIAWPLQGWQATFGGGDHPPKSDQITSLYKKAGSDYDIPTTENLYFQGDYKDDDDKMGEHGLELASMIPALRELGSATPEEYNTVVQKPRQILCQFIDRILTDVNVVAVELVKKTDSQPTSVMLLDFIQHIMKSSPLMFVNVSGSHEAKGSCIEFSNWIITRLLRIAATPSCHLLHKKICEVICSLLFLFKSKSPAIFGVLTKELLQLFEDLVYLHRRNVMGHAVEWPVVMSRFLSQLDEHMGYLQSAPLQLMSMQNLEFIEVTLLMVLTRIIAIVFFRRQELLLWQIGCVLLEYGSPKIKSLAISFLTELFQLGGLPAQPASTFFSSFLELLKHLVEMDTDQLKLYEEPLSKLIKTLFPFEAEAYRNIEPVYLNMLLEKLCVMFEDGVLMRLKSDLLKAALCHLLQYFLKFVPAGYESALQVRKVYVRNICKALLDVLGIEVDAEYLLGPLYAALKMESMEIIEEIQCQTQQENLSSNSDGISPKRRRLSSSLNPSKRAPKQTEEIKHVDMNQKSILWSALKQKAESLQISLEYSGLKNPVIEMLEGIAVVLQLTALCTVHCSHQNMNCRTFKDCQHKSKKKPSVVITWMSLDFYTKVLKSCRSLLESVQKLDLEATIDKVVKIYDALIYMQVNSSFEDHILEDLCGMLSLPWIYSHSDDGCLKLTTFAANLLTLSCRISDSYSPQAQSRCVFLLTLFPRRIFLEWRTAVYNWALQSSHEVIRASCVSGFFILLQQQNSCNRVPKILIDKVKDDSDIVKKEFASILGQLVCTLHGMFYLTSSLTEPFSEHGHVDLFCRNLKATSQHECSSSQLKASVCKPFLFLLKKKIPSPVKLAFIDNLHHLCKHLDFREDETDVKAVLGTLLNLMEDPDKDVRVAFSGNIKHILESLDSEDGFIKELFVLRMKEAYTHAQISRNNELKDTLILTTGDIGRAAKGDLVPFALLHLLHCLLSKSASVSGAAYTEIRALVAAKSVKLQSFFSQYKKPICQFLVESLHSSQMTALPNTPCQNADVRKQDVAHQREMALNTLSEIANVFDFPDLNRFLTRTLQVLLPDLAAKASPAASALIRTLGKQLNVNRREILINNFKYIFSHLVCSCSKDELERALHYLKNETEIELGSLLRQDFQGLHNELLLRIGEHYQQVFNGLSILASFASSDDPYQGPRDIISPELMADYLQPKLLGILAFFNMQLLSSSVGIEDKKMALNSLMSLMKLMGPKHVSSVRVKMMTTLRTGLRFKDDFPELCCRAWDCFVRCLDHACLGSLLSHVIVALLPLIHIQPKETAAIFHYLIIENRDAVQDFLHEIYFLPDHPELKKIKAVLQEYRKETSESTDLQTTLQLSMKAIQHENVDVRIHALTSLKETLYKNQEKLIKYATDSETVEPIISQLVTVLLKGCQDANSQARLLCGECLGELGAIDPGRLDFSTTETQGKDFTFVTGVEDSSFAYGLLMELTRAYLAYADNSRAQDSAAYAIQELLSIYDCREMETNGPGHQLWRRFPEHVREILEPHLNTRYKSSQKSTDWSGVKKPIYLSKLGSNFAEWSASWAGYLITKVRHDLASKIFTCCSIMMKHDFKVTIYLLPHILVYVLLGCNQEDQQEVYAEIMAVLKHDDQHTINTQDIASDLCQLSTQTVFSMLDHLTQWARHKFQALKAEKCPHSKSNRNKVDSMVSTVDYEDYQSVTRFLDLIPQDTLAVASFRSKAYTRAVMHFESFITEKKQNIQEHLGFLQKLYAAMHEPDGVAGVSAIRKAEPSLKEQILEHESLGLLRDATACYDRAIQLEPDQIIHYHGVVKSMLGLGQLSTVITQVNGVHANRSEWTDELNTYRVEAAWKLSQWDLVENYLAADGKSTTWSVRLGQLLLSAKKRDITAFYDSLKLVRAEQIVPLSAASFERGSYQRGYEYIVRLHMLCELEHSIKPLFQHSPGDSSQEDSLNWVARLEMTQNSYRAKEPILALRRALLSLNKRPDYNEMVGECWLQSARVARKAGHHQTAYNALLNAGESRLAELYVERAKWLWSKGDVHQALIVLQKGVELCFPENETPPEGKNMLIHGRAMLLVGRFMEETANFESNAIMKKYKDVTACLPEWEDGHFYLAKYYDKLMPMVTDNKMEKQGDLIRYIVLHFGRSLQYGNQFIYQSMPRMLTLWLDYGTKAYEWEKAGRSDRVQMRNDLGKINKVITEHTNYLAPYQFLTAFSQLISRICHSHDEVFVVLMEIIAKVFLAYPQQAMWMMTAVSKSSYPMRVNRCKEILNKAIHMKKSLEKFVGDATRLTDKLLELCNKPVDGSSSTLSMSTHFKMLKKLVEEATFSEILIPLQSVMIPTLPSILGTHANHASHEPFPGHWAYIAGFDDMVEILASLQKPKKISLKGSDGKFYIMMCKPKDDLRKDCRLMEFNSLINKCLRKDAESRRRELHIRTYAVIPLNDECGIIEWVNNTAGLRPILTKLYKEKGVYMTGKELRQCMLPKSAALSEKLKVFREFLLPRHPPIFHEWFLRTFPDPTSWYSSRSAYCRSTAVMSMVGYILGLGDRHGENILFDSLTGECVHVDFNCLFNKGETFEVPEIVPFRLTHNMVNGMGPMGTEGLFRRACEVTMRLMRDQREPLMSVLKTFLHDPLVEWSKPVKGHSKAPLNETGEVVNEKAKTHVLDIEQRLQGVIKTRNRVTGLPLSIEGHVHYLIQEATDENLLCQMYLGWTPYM
full-length human ATR protein, sequence (Q8WXE1 other isoform, or with tags, fused parts or gaps partner): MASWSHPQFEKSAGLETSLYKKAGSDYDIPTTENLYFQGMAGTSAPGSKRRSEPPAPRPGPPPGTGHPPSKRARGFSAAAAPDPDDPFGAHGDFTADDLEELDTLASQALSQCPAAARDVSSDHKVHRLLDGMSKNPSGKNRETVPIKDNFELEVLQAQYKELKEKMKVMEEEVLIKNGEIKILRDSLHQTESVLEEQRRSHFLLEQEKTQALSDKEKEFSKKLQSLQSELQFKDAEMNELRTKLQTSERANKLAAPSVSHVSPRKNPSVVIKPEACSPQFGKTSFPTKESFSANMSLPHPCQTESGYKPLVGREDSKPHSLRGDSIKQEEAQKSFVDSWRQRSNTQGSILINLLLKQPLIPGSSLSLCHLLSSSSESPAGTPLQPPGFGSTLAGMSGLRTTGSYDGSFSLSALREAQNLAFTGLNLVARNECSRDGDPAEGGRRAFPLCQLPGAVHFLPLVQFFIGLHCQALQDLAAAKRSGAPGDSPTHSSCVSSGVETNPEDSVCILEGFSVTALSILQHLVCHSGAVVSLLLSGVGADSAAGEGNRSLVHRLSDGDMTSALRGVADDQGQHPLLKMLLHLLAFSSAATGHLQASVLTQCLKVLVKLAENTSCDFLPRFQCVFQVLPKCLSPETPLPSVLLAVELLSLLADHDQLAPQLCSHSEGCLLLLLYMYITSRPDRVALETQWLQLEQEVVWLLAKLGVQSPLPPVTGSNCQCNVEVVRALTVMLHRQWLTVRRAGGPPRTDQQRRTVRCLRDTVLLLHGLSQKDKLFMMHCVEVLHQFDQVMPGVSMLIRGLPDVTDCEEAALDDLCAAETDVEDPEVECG

Structure (SMILES) | IC50 [1] [nM] | IC50 [2] [nM]
C[C@@H]1COCCN1c1cc(N=S(C)(=O)C(C)(C)C)c2ccnc(-c3ccn[nH]3)c2n1 (stereo partly drawn) [Example 278, 4-{[tert-butyl(methyl)oxido-λ^6-sulfanylidene]amino}-2-[(3R)-3-methylmorpholin-4-yl]-8-(1H-pyrazol-5-yl)-1,7-naphthyridine] | 26.9 | 
O=C(c1cccc(-c2cc(N3CCOCC3)nc3c(-c4ccn[nH]4)nccc23)c1)N1CCCCC1 [Example 328, {3-[2-(morpholin-4-yl)-8-(1H-pyrazol-5-yl)-1,7-naphthyridin-4-yl]phenyl}(piperidin-1-yl)methanone] | 296 | 
CC(C)Oc1cc(N2[C@H](C)COC[C@@H]2C)nc2c(-c3ccn[nH]3)nccc12 [Example 58, 2-[(3R,5S)-3,5-dimethylmorpholin-4-yl]-4-isopropoxy-8-(1H-pyrazol-5-yl)-1,7-naphthyridine] | 413 | 615
Cc1cc(-c2cc(N3CCOC[C@H]3C)nc3c(-c4ccn[nH]4)nccc23)cs1 [Example 234, 2-[(3R)-3-methylmorpholin-4-yl]-4-(5-methylthiophen-3-yl)-8-(1H-pyrazol-5-yl)-1,7-naphthyridine] | 29.2 | 
NC(=O)C1CCCN(c2cc(N3CCOCC3)nc3c(-c4ccn[nH]4)nccc23)C1 (centres unmarked) [Example 416, 1-[2-(morpholin-4-yl)-8-(1H-pyrazol-5-yl)-1,7-naphthyridin-4-yl]piperidine-3-carboxamide] | 251 | 
Cc1cc(-c2cc(N3CCOCC3)nc3c(-c4ccn[nH]4)nccc23)ccn1 [Example 188, 4-(2-methylpyridin-4-yl)-2-(morpholin-4-yl)-8-(1H-pyrazol-5-yl)-1,7-naphthyridine] | 251 | 
CS(=O)(=O)Cc1cc(N2CCOCC2)nc2c(-c3ccn[nH]3)nccc12 [Example 37, 4-methanesulphonylmethyl-2-morpholin-4-yl-8-(2H-pyrazol-3-yl)-[1,7]naphthyridine] | 170 | 127
c1cc(-c2nccc3c(N4CCCCC4)cc(N4CCOCC4)nc23)[nH]n1 [Example 408, 2-(morpholin-4-yl)-4-(piperidin-1-yl)-8-(1H-pyrazol-5-yl)-1,7-naphthyridine] | 65.1 | 
c1cnc2c(-c3cc(N4CCOCC4)nc4c(-c5ccn[nH]5)nccc34)cccc2c1 [Example 380, 2-(morpholin-4-yl)-8-(1H-pyrazol-5-yl)-4-(quinolin-8-yl)-1,7-naphthyridine] | 1460 | 
C[C@@H]1COCCN1c1cc(N2CCC[C@H]2C(N)=O)c2ccnc(-c3ccn[nH]3)c2n1 [Example 154, 1-{2-[(3R)-3-methylmorpholin-4-yl]-8-(1H-pyrazol-5-yl)-1,7-naphthyridin-4-yl}prolinamide] | 55 | 
O=C(NC1CC1)c1cccc(-c2cc(N3CCOCC3)nc3c(-c4ccn[nH]4)nccc23)c1 [Example 330, N-cyclopropyl-3-[2-(morpholin-4-yl)-8-(1H-pyrazol-5-yl)-1,7-naphthyridin-4-yl]benzamide] | 91.3 | 
Cc1ccc(-c2cc(N3CCOCC3)nc3c(-c4ccn[nH]4)nccc23)s1 [Example 381, 4-(5-methylthiophen-2-yl)-2-(morpholin-4-yl)-8-(1H-pyrazol-5-yl)-1,7-naphthyridine] | 121 | 
C[C@@H]1COCCN1c1cc(C2(O)CCCCC2)c2ccnc(-c3ccn[nH]3)c2n1 [Example 189, 1-{2-[(3R)-3-methylmorpholin-4-yl]-8-(1H-pyrazol-5-yl)-1,7-naphthyridin-4-yl}cyclohexanol] | 21.4 | 
CSc1ccc(-c2cc(N3CCOC[C@H]3C)nc3c(-c4ccn[nH]4)nccc23)c(C)n1 [Example 115, 4-[2-methyl-6-(methylsulfanyl)pyridin-3-yl]-2-[(3R)-3-methylmorpholin-4-yl]-8-(1H-pyrazol-5-yl)-1,7-naphthyridine] | 7.44 | 
C[C@@H]1COCCN1c1cc(-c2[nH]nnc2C2CC2)c2ccnc(-c3ccn[nH]3)c2n1 [Example 194, 4-(4-cyclopropyl-1H-1,2,3-triazol-5-yl)-2-[(3R)-3-methylmorpholin-4-yl]-8-(1H-pyrazol-5-yl)-1,7-naphthyridine] | 37.6 | 
C[C@@H]1CN[C@@H](C)CN1c1cc(N2CCOCC2)nc2c(-c3ccn[nH]3)nccc12 (relative stereo) [Example 178, 4-[(trans)-2,5-dimethylpiperazin-1-yl]-2-(morpholin-4-yl)-8-(1H-pyrazol-5-yl)-1,7-naphthyridine] | 377 | 
Cc1ncccc1-c1cc(N2CCOC[C@H]2C)nc2c(-c3ccn[nH]3)nccc12 [Example 218, 2-[(3R)-3-methylmorpholin-4-yl]-4-(2-methylpyridin-3-yl)-8-(1H-pyrazol-5-yl)-1,7-naphthyridine] | 11.8 | 
O=C(c1ccc(-c2cc(N3CCOCC3)nc3c(-c4ccn[nH]4)nccc23)cc1)N1CCCCC1 [Example 289, {4-[2-(morpholin-4-yl)-8-(1H-pyrazol-5-yl)-1,7-naphthyridin-4-yl]phenyl}(piperidin-1-yl)methanone] | 2990 | 

Structure (SMILES) | IC50 [1] [nM] | IC50 [2] [nM]
C[C@@H]1COCCN1c1cc(N(C)CC(C)(C)C)c2ccnc(-c3ccn[nH]3)c2n1 [Example 83, N-(2,2-dimethylpropyl)-N-methyl-2-[(3R)-3-methylmorpholin-4-yl]-8-(1H-pyrazol-5-yl)-1,7-naphthyridin-4-amine] | 5.38 | 
Cc1ccsc1-c1cc(N2CCOC[C@H]2C)nc2c(-c3ccn[nH]3)nccc12 [Example 99, 2-[(3R)-3-methylmorpholin-4-yl]-4-(3-methyl-2-thienyl)-8-(1H-pyrazol-5-yl)-1,7-naphthyridine] | 6.38 | 
CS(=O)(=O)c1ccccc1-c1cc(N2CCOCC2)nc2c(-c3cc[nH]n3)nccc12 [Example 8, 4-(2-methanesulphonylphenyl)-2-(morpholin-4-yl)-8-(1H-pyrazol-3-yl)-[1,7]naphthyridine hydrochloride] | 118 | 69.2
C[C@@H]1COCCN1c1cc(C(C)(O)C2CCOCC2)c2ccnc(-c3ccn[nH]3)c2n1 (stereo partly drawn) [Example 282, 1-{2-[(3R)-3-methylmorpholin-4-yl]-8-(1H-pyrazol-5-yl)-1,7-naphthyridin-4-yl}-1-(tetrahydro-2H-pyran-4-yl)ethanol] | 12.7 | 
C[C@@H]1COCCN1c1cc(N=S(C)(=O)c2ccccc2F)c2ccnc(-c3ccn[nH]3)c2n1 (stereo partly drawn) [Example 139, 4-{[(2-fluorophenyl)(methyl)oxido-λ^6-sulfanylidene]amino}-2-[(3R)-3-methylmorpholin-4-yl]-8-(1H-pyrazol-5-yl)-1,7-naphthyridine] | 41.7 | 
CN(C)c1ccccc1-c1cc(N2CCOCC2)nc2c(-c3ccn[nH]3)nccc12 [Example 321, N,N-dimethyl-2-[2-(morpholin-4-yl)-8-(1H-pyrazol-5-yl)-1,7-naphthyridin-4-yl]aniline] | 44.4 | 
C[C@@H]1COCCN1c1cc(-c2ccc(S(C)(=N)=O)cc2)c2ccnc(-c3ccn[nH]3)c2n1 (stereo partly drawn) [Example 30, 4-[2-((R)-3-methylmorpholin-4-yl)-8-(2H-pyrazol-3-yl)-[1,7]naphthyridine-4-yl]phenyl-S-methylsulphoximide] | 22.8 | 9.48
CC(C)Cn1cc(-c2cc(N3CCOC[C@H]3C)nc3c(-c4ccn[nH]4)nccc23)cn1 [Example 268, 2-[(3R)-3-methylmorpholin-4-yl]-4-[1-(2-methylpropyl)-1H-pyrazol-4-yl]-8-(1H-pyrazol-5-yl)-1,7-naphthyridine] | 19.3 | 
C[C@@H]1COCCN1c1cc(OCCCNC(=O)OC(C)(C)C)c2ccnc(-c3ccn[nH]3)c2n1 [Example 54, Tert-butyl [3-({2-[(3R)-3-methylmorpholin-4-yl]-8-(1H-pyrazol-5-yl)-1,7-naphthyridin-4-yl}oxy)propyl]carbamate] | 288 | 129
OCc1cc(N2CCOCC2)nc2c(-c3ccn[nH]3)nccc12 [Example 38, [2-(morpholin-4-yl)-8-(2H-pyrazol-3-yl)-[1,7]naphthyridine-4-yl]methanol] | 502 | 405
c1cc(-c2nccc3c(N4C[C@H]5COC[C@H]5C4)cc(N4CCOCC4)nc23)[nH]n1 [Example 183, 2-(morpholin-4-yl)-8-(1H-pyrazol-5-yl)-4-[(3aR,6aS)-tetrahydro-1H-furo[3,4-c]pyrrol-5(3H)-yl]-1,7-naphthyridine] | 649 | 
CC(C)Oc1cc(N2CCOCC2)nc2c(-c3ccc[nH]3)nccc12 [Example 41, 2-(morpholin-4-yl)-4-(propan-2-yloxy)-8-(1H-pyrrol-2-yl)-1,7-naphthyridine] | 339 | 230
OC[C@H]1CCCN(c2cc(N3CCOCC3)nc3c(-c4ccn[nH]4)nccc23)C1 (stereo in doubt) [Example 437, {1-[2-(morpholin-4-yl)-8-(1H-pyrazol-5-yl)-1,7-naphthyridin-4-yl]piperidin-3-yl}methanol] | 118 | 
Fc1ccccc1-c1cc(N2CCOCC2)nc2c(-c3ccn[nH]3)nccc12 [Example 327, 4-(2-fluorophenyl)-2-(morpholin-4-yl)-8-(1H-pyrazol-5-yl)-1,7-naphthyridine] | 17.7 | 
CN(C)C(=O)c1ccccc1-c1cc(N2CCOCC2)nc2c(-c3ccn[nH]3)nccc12 [Example 290, N,N-dimethyl-2-[2-(morpholin-4-yl)-8-(1H-pyrazol-5-yl)-1,7-naphthyridin-4-yl]benzamide] | 1190 | 
CCOC(=O)N=S(C)(=O)c1ccc(-c2cc(N3CCOCC3)nc3c(-c4ccn[nH]4)nccc23)cc1 (centres unmarked) [Example 1] | 36.8 | 23.9
Cc1cc(S(C)(=O)=O)ncc1-c1cc(N2CCOCC2)nc2c(-c3ccn[nH]3)nccc12 [Example 6, 4-[4-methyl-6-(methylsulfonyl)pyridin-3-yl]-2-(morpholin-4-yl)-8-(1H-pyrazol-5-yl)-1,7-naphthyridine] | 68.6 | 
Cc1ccc(-c2cc(N3CCOC[C@H]3C)nc3c(-c4ccn[nH]4)nccc23)c(F)n1 [Example 93, 4-(2-fluoro-6-methylpyridin-3-yl)-2-[(3R)-3-methylmorpholin-4-yl]-8-(1H-pyrazol-5-yl)-1,7-naphthyridine] | 10.9 | 
